Measurements as given in the supplement of paper PMC10307832.

Key:
Experiment in all cases: relative viability (nuclei count vs DMSO), 5 days (fraction); higher = more cells survive
Trametinib + Lapatinib = compound: CC(=O)Nc1cccc(-n2c(=O)n(C3CC3)c(=O)c3c(Nc4ccc(I)cc4F)n(C)c(=O)c(C)c32)c1 [Trametinib] + CS(=O)(=O)CCNCc1ccc(-c2ccc3ncnc(Nc4ccc(OCc5cccc(F)c5)c(Cl)c4)c3c2)o1 [Lapatinib] (partner 2 µM)
In short: (§1)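 Relative viability was taken as the ratio of nuclei in treated wells to nuclei in vehicle wells. Lung cancer cell lines in 1536-well plates received compounds by pin tool one day after seeding, either one drug alone or a fixed anchor-drug dose plus five library-drug doses (not always all listed) in √10 steps. Nuclei were counted on 4× images after 5 days of treatment, and values are medians of duplicate plates.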

[1] = compound: CN1C=C(C2=CC=CC=C21)/C=C\3/C4=C(C=CC=N4)NC3=O + CC(=O)c1c(C)c2cnc(Nc3ccc(N4CCNCC4)cn3)nc2n(C2CCCC2)c1=O [Palbociclib] (partner 0.5 µM)
In short: as §1

Trametinib + Alpelisib = compound: CC(=O)Nc1cccc(-n2c(=O)n(C3CC3)c(=O)c3c(Nc4ccc(I)cc4F)n(C)c(=O)c(C)c32)c1 [Trametinib] + Cc1nc(NC(=O)N2CCC[C@H]2C(N)=O)sc1-c1ccnc(C(C)(C)C(F)(F)F)c1 [Alpelisib] (partner 2 µM)
In short: as §1

Trametinib + Foretinib = compound: CC(=O)Nc1cccc(-n2c(=O)n(C3CC3)c(=O)c3c(Nc4ccc(I)cc4F)n(C)c(=O)c(C)c32)c1 [Trametinib] + COc1cc2c(Oc3ccc(NC(=O)C4(C(=O)Nc5ccc(F)cc5)CC4)cc3F)ccnc2cc1OCCCN1CCOCC1 [Foretinib] (partner 0.25 µM)
In short: as §1

UMC-11 was tested, and the relative viability (Trametinib + Lapatinib; first compound 0.0025 µM) was 0.951, the relative viability (Trametinib + Lapatinib; first compound 0.007906 µM) was 0.973 and the relative viability (Trametinib + Lapatinib; first compound 0.025 µM) was 0.348. The relative viability (Trametinib + Lapatinib; first compound 0.07906 µM) was 0.963, the relative viability (Trametinib + Lapatinib; first compound 0.25 µM) was 0.758 and the relative viability ([1]; first compound 0.02 µM) was 0.3. It also gave a relative viability ([1]; first compound 0.06325 µM) of 0.318, a relative viability ([1]; first compound 0.2 µM) of 0.358 and a relative viability ([1]; first compound 0.6325 µM) of 0.344. For the same cell line, the relative viability ([1]; first compound 2 µM) was 0.332, the relative viability (Trametinib + Alpelisib; first compound 0.0025 µM) was 0.904 and the relative viability (Trametinib + Alpelisib; first compound 0.007906 µM) was 0.981. It also gave a relative viability (Trametinib + Alpelisib; first compound 0.025 µM) of 0.956, a relative viability (Trametinib + Alpelisib; first compound 0.07906 µM) of 0.876 and a relative viability (Trametinib + Alpelisib; first compound 0.25 µM) of 0.945. For the same cell line, the relative viability (Trametinib + Foretinib; first compound 0.0025 µM) was 1, the relative viability (Trametinib + Foretinib; first compound 0.007906 µM) was 1.03 and the relative viability (Trametinib + Foretinib; first compound 0.025 µM) was 0.997. It also gave a relative viability (Trametinib + Foretinib; first compound 0.07906 µM) of 1.06 and a relative viability (Trametinib + Foretinib; first compound 0.25 µM) of 1.03.
